What was measured:
[1] = system: cell lines overproducing PKC; assay: Growth in agar of cell lines overproducing PKC (further screening of activators and inhibitors); format: cell-based, rat; settings: PKC-overproducing cell lines; known activators or inhibitor of PKC
Procedure: Cells were seeded at a density of 10^4/plate in a series of 60 mm plates, in 5 ml DMEM plus 10% CS. Twenty-four hours later, cells in triplicate plates were trypsinized and counted. This point was designated “day 0.” The remaining cultures were then grown in the respective medium (i.e. plus or minus 100 ng/ml TPA) with fresh medium changes twice per week. Cell counts per plate were then determined on triplicate plates during the remainder of the growth curve (FIG. 3). The results obtained were analyzed for exponential doubling time and saturation density (Table 2). To assess growth in soft agar (anchorage independence), 2×10^4 cells were suspended in 2 ml of 0.3% Bacto agar (Difco Laboratories, Detroit, Mich.) in DMEM containing 20% fetal calf serum (FCS) and overlayed above a layer of 5 ml of 0.5% agar in the same medium, on 60 mm petri dishes. The cells were then overlaid with DMEM plus 20% FCS every 4 days. At the end of 30 days, colonies were stained with the vital stain 2-(p-iodophenyl)-3-(p-nitrophenyl)-5-phenyltetrazolinium chloride hydrate (INT) (Sigma Chemical Co., St. Louis, Mo.) for 48 hours at 37° C., in an incubator with 5% CO2 (Schaeffer and Friend, 1976), and the number of colonies counted under low power on an inverted phase microscope. The data are expressed as “cloning efficiency”, i.e. number of colonies greater than 0.05 mm per plate X 100 divided by the number of cells originally seeded per plate.
Additional compounds tested included the tumor promoters teleocidin, aplysiatoxin, and mezerein, all of which are known activators of PKC (O'Brian, et al., CSH, 1985).
Inhibition of the growth of the R6-PKC3 cells in agar in the presence of tamoxifen provided critical evidence that tamoxifen could inhibit PKC-mediated stimulation of cellular growth.

[2] = system: CHO/HIRC cells overproducing the human insulin receptor; assay: Morphologic and growth control effects of insulin on CHO/HIRC test cells; format: cell-based, Chinese Hamster; settings: 400 nM insulin
Excerpt: (§1) These cell lines were generated using approaches analogous to those previously described for the PKC-overproducing cell lines. However, in these HIR studies we utilized a different expression vector, distinct cell lines, and an alternative method of gene transfer (direct transfection as opposed to virus-mediated transduction as used in the PKC experiments previously described). Briefly, CHO cells were co-transfected with the transfer vector pSVEneo (containing the neomycin resistance gene) and the expression vector pCVSVHIRc as previously described (White et al., 1988). After twenty four hours, the transfected cells were placed into 800 ug/ml G418 to select resistant cells. Approximately two weeks later, G418-resistant clones were isolated and subcloned. Clonal cell lines which express high levels of surface insulin receptors were selected by fluorescence-activated cell sorting. One such line (CHO/HIRC), which stably overproduced approximately 80,000 insulin receptors per CHO cell, was utilized in these experiments. A control CHO cell line (CHO/NEO), harboring only the pSVEneo transfer vector, were generated in analogous fashion. Detailed preliminary characterizations of this cell line have been described (White et al., 1988).
We then tested the ability of the CHO/HIRC and CHO/NEO cells to respond to the following insulin treatment protocol. Control cells, hereinafter termed CHO/NEO (which harbor pSVEneo alone), and the Test cells, termed CHO/HIRC (which stably overproduced about 80,000 insulin receptors per cell), were incubated in the presence and absence of insulin. Control (CHO/NEO) and Test (CHO/HIRC) cell lines were exposed to 400 nM of insulin and the resultant morphologic changes were observed and photographed using a Bausch and Lomb BL-200 phase-contrast microscope with a Nikon FM-200 camera attached.

[3] = system: CHO/NEO control cells; assay: Morphologic and growth control effects of insulin on CHO/NEO control cells; format: cell-based, Chinese Hamster; settings: 400 nM insulin, 48 hours after treatment
Excerpt: as §1
We then tested the ability of the CHO/HIRC and CHO/NEO cells to respond to the following insulin treatment protocol. […]

Molecule | modulation of the growth of the cells [1] | morphologic changes ([2]; 24 hours after exposure) | adherence to the culture plate ([2]; 48 hours after treatment) | morphologic changes ([2]; after 18 hours) | adherence to the culture plate [3]
CO[C@@H](CC[C@H](C)[C@H]1O[C@@]23C[C@H](OC(=O)C[C@H]([C@@H](C)O)OC(=O)C[C@](O)(O2)[C@H](C)CC3(C)C)[C@@H]1C)c1cc(O)ccc1Br [aplysiatoxin] | modulated the growth of the cells in the expected manner |  |  |  | 
C=C(C)[C@@]12O[C@@]3(c4ccccc4)O[C@@H]1[C@@H]1[C@@H]4O[C@]4(CO)[C@@H](O)[C@]4(O)C(=O)C(C)=C[C@H]4[C@@]1(O3)[C@H](C)[C@H]2OC(=O)/C=C/C=C/c1ccccc1 [mezerein] | modulated the growth of the cells in the expected manner |  |  |  | 
insulin |  | further pronounced | virtually all of the test cells had completely detached from the plate | profound morphologic changes | still largely intact
teleocidin | modulated the growth of the cells in the expected manner |  |  |  | 
